Patent US20210085807A1, “METAL-BINDING PEPTIDE AND USE THEREOF” (The University of Tokyo, priority 2018, published 2021)

Test: Adsorption on stent in plasma, fluorescence microscopy
Assay type: binding
Conditions: stent immersed in human plasma 37° C., 30 minutes, then 0.5 mM peptide or PEG-peptide conjugate solution 37° C.
Experimental: Next, in order to analyze the binding ability of the peptide of the present invention to a stent existing in plasma, whether or not the peptide of the present invention binds to a stent that has been allowed to come into contact with plasma was examined.
That is, a stent was immersed in human plasma (37° C., 30 minutes), and was then removed from the plasma. The stent was then immersed in each peptide solution (0.5 mM) and a PEG-peptide conjugate solution (0.5 mM) (37° C., 30 minutes). Thereafter, the stent was sufficiently rinsed with PBS, and was then observed under a fluorescence microscope.
FIG. 15 and FIG. 16 show the fluorescence microscopic images of the stents, and the observed fluorescence intensities are summarized in FIG. 17. The method of digitizing the fluorescence intensity is as described above.

LTPHKHHKHLHA [YT07]
binding to the surface of the stent after contact with human plasma: does not bind to a stent
